The values that follow come from PubChem BioAssay (NCI).

Test systems include OVCAR-4 ovarian; SR leukemia; SNB-75 CNS; HL-60(TB) leukemia; M14 melanoma; SK-OV-3 ovarian; SF-295 CNS; UACC-257 melanoma; BT-549 breast; IGROV1 ovarian.
What all share (test): NCI-60 cell line screen, 48 h

SMILES strings stand for the structures. Several values for one entry are separate records, joined by “and”; a condition that tells them apart may be missing. Equal values may be shown once.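 Growth conditions: 96-well plates. Treatment: test compound, 48 hours, 5 concentrations. Analysis: linear interpolation between bracketing concentrations; unreached endpoints set to highest concentration. GI50 = concentration required for 50% inhibition of growth. Definition used: TGI = concentration required for complete inhibition of growth.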

In the case of `O=C(c1nc2ccc([N+](=O)[O-])cc2[nH]c1=O)C(O)c1ccc2c(c1)OCO2` (centres undefined), the TGI with OVCAR-4 ovarian, in the assay with SR leukemia, with SNB-75 CNS, with HL-60(TB) leukemia, in the assay with M14 melanoma and with SK-OV-3 ovarian was greater than 100 µM each time. The TGI in the assay with SF-295 CNS, in the assay with UACC-257 melanoma, in the assay on BT-549 breast and in the assay on IGROV1 ovarian was greater than 100 µM throughout.
Consider `COc1ccc(-c2cs/c(=N\N=C\c3ccc(O)cc3O)n2/N=C/c2ccc(O)cc2O)cc1`, for which the GI50 is 2.17 µM in the assay on OVCAR-4 ovarian; 2.53 µM with SR leukemia; 1.58 µM with SNB-75 CNS; 1.76 µM in the assay on HL-60(TB) leukemia; 1.63 µM with M14 melanoma; 2.31 µM in the assay on SK-OV-3 ovarian. Moreover, the GI50 was 1.71 µM with SF-295 CNS, 2.28 µM in the assay on UACC-257 melanoma, 1.54 µM in the assay on BT-549 breast and 2.67 µM in the assay with IGROV1 ovarian. The TGI was 7.12 µM in the assay with OVCAR-4 ovarian; greater than 100 µM in the assay on SR leukemia; 3.08 µM in the assay with SNB-75 CNS; 6.09 µM with HL-60(TB) leukemia; 3.21 µM with M14 melanoma; 5.02 µM with SK-OV-3 ovarian. Further, the TGI amounted to 3.33 µM in the assay on SF-295 CNS, 6.19 µM with UACC-257 melanoma, 3.59 µM in the assay on BT-549 breast and 6.5 µM in the assay on IGROV1 ovarian.
For `CC(=O)c1ccc2c(c1)C1C=CCC1[C@H](c1cc3c(cc1Br)OCO3)N2` (some centres undefined), the GI50 in the assay on OVCAR-4 ovarian is 1.63 µM; with SR leukemia, 0.519 µM; in the assay with SNB-75 CNS it was 0.5 µM; in the assay on HL-60(TB) leukemia, 1.3 µM; in the assay with M14 melanoma, 0.765 µM; in the assay on SK-OV-3 ovarian, 1.47 µM. The GI50 with SF-295 CNS was 0.382 µM; in the assay on UACC-257 melanoma, 5.34 µM; in the assay on BT-549 breast, 0.716 µM; with IGROV1 ovarian, 1.63 µM. Moreover, the TGI in the assay with OVCAR-4 ovarian was greater than 50.2 µM; in the assay with SR leukemia it was 6.15 µM; with SNB-75 CNS, 7.55 µM; with HL-60(TB) leukemia it was 5.07 µM; in the assay on M14 melanoma, 5.38 µM; in the assay on SK-OV-3 ovarian it was 17.8 µM. In addition, the TGI in the assay on SF-295 CNS is 3.07 µM; with UACC-257 melanoma, 27 µM; in the assay with BT-549 breast, 13.8 µM; with IGROV1 ovarian, greater than 64.9 µM.
For `CC(C)c1cnn2c(NCc3ccccc3)cc(NC[C@H]3CCNC[C@@H]3O)nc12`, the GI50 in the assay with OVCAR-4 ovarian is 0.304 µM and 0.597 µM; in the assay on SR leukemia it was 0.0481 µM and 0.0623 µM; in the assay with SNB-75 CNS, 0.515 µM and 1.32 µM; in the assay with HL-60(TB) leukemia, 0.132 µM and 0.297 µM; with M14 melanoma it was 0.586 µM and 0.688 µM; with SK-OV-3 ovarian, 4.71 µM and 3.41 µM. The GI50 was 1.15 µM and 0.508 µM in the assay on SF-295 CNS; 0.656 µM and 0.716 µM in the assay on UACC-257 melanoma; 1.81 µM and 1.27 µM in the assay on BT-549 breast; 0.252 µM and 0.279 µM in the assay on IGROV1 ovarian. Besides, the TGI is 2.8 µM and 3.62 µM in the assay with OVCAR-4 ovarian; 2.04 µM and 2.83 µM in the assay on SNB-75 CNS; 0.584 µM and 1.71 µM with HL-60(TB) leukemia; 2.25 µM and 2.2 µM in the assay with M14 melanoma; 15.1 µM and 16.5 µM in the assay on SK-OV-3 ovarian; 11.1 µM and 9.32 µM with SF-295 CNS. Also, the TGI in the assay with UACC-257 melanoma was 4.78 µM and 5.18 µM; in the assay on BT-549 breast it was 4.4 µM and 3.08 µM; in the assay with IGROV1 ovarian it was 11 µM and 10.3 µM.
For the compound `CS(=O)(=O)CCNCc1cc(-c2cc3c(Nc4ccc(OCc5cccc(F)c5)c(Cl)c4)ncnc3s2)cs1`, the GI50 is 14.4 µM in the assay with OVCAR-4 ovarian; 7.39 µM with SR leukemia; 7.9 µM in the assay with SNB-75 CNS; 4.18 µM in the assay with HL-60(TB) leukemia; 13.4 µM with M14 melanoma; 1.04 µM with SK-OV-3 ovarian. In addition, the GI50 is 9.89 µM with SF-295 CNS, 12.9 µM with UACC-257 melanoma, 17.2 µM in the assay with BT-549 breast and 5.61 µM in the assay on IGROV1 ovarian. For the same compound, the TGI in the assay on OVCAR-4 ovarian is greater than 25 µM; in the assay with SR leukemia it was greater than 25 µM; in the assay on SNB-75 CNS it was greater than 25 µM; with HL-60(TB) leukemia, greater than 25 µM; with M14 melanoma it was greater than 25 µM; in the assay on SK-OV-3 ovarian, greater than 19.6 µM. Further, the TGI with SF-295 CNS, in the assay with UACC-257 melanoma, in the assay on BT-549 breast and in the assay with IGROV1 ovarian was greater than 25 µM in each case.
Turning to `CC(C)CCC[C@@H](C)[C@H]1CC[C@H]2[C@@H]3CC[C@H]4C[C@@H](CCC=C(c5cc(Cl)c(O)c(C(=O)O)c5)c5cc(Cl)c(O)c(C(=O)O)c5)CC[C@]4(C)[C@H]3CC[C@]12C`, the TGI in the assay on OVCAR-4 ovarian, in the assay on SR leukemia, with SNB-75 CNS, with HL-60(TB) leukemia, in the assay with M14 melanoma and in the assay with SK-OV-3 ovarian was greater than 100 µM in each case. The TGI in the assay on SF-295 CNS, in the assay on UACC-257 melanoma, in the assay with BT-549 breast and in the assay on IGROV1 ovarian was greater than 100 µM in each case.
As for `CCC(O)c1ccc(Br)cc1NC(=O)c1cccc(Cl)c1` (centres undefined), the GI50 was 30 µM in the assay with OVCAR-4 ovarian; 24 µM in the assay on SR leukemia; 10.8 µM in the assay on SNB-75 CNS; 22.3 µM with HL-60(TB) leukemia; 21.3 µM in the assay on M14 melanoma; 23.7 µM with SK-OV-3 ovarian. For the same compound, the GI50 with SF-295 CNS was 15 µM; with UACC-257 melanoma, 18.4 µM; in the assay with BT-549 breast, 23.7 µM; in the assay on IGROV1 ovarian, 17.2 µM. The TGI in the assay on OVCAR-4 ovarian is greater than 100 µM; in the assay with SR leukemia, 70.5 µM; with SNB-75 CNS, greater than 100 µM; with HL-60(TB) leukemia, 60.1 µM; in the assay on M14 melanoma, 52.3 µM; in the assay with SK-OV-3 ovarian, 64.3 µM. The TGI with SF-295 CNS is 35.1 µM; in the assay with UACC-257 melanoma it was 35.1 µM; in the assay on BT-549 breast it was 74.3 µM; in the assay with IGROV1 ovarian it was 92.6 µM.
For `COc1cc2nc(SCc3cc(OC)c(OC)c(OC)c3)n(Cc3ccccc3)c(=O)c2cc1OC`, the GI50 is 5.5 µM with OVCAR-4 ovarian; 0.533 µM in the assay on SR leukemia; 0.876 µM in the assay on SNB-75 CNS; 2.14 µM in the assay with HL-60(TB) leukemia; 2.11 µM with M14 melanoma; 3.18 µM with SK-OV-3 ovarian. Also, the GI50 is 2.49 µM with SF-295 CNS, 5.25 µM in the assay with UACC-257 melanoma, 3.32 µM in the assay with BT-549 breast and 7.82 µM with IGROV1 ovarian. Moreover, the TGI in the assay with OVCAR-4 ovarian was greater than 100 µM; in the assay on SR leukemia, greater than 22.2 µM; in the assay on SNB-75 CNS, 6.23 µM; in the assay with HL-60(TB) leukemia, greater than 100 µM; in the assay with M14 melanoma it was greater than 26.8 µM; with SK-OV-3 ovarian, 18.6 µM. For the same compound, the TGI was 11.7 µM with SF-295 CNS, greater than 100 µM in the assay on UACC-257 melanoma, 20.7 µM in the assay with BT-549 breast and greater than 70.5 µM in the assay with IGROV1 ovarian.
